Earlier results on one compound are cited in patent US7998503B2, “Form of administration for controlling primary headaches” (LTS Lohmann Therapie-Systeme AG, priority 2003, dated 2011).

The conditions of the data set: nasally administered, literature report.

On to `CCN(CC)CC(=O)Nc1c(C)cccc1C` [lidocaine], for which the “effect on migraine pain after nasal administration” value (e.g. sprays) is reported as “fast decline in migraine pain”. In addition, the “renewed appearance of the pain after administration” value (shortly after administration) is given as “recurrence, meaning renewed appearance of the pain, was found shortly after administration”.
